Test results: patent publication US10674729B2, “Synergistic combination of 3-IODO-2-propynyl-butylcarbamate and diamine” (priority 2016, dated 2020)

What was measured:
Test in all cases: MIC and synergy testing in tryptic soy broth (turbidity reading)
Assay type in all cases: cell-based
[1] = test system: Pseudomonas aeruginosa (DSMZ#939); settings: 48 hours, 30° C., TSB
Protocol: (§1) The synergism of the biocides combination of the present invention was determined using the method described by Kull, F. C., et. al in Applied Microbiology 9:538-541 (1961). The formula to calculate the synergy index (SI) is Qa/QA+Qb/QB=SI Where • QA=concentration of compound A in ppm, acting alone produced an end point (growth/no growth) • Qa=concentration of compound A in ppm, in the mixture, which produced an end point (growth/no growth) • QB=concentration of compound B in ppm, acting alone produced an end point (growth/no growth) • Qb=concentration of compound B in ppm, in the mixture, which produced an end point (growth/no growth) […]
(§2) • 1. The test was executed with a Hamilton MLStarPlus robot using automated turbidity reading with BioTek Synergy H4 plate reader. • 2. […]
(§3) • The cultures were maintained as glycerol stocks at −80° C. in cryovials, are thawed and then 100 μl spread on MEA (malt extract agar) petri dishes. • The yeast strain plates were incubated at 28° C. for 1-2 days then harvested with buffer pH 5.0. • Based on total viable count results, the inoculum was prepared. • 7. […] Reading of the results was carried out by measuring absorbance at 600 nm for each sample at the beginning of the test (tzero) and after incubation (tendpoint). tendpoint was chosen at 48 hours for bacteria and 72 hours for yeast. […]

[2] = test system: Staphylococcus aureus (DSMZ#799); settings: 48 hours, 30° C., TSB
Protocol: as §1, §2, §3

[3] = test system: Candida albicans (DSMZ#1386); settings: 72 hours, 30° C., TSB
Protocol: as §1, §2, §3

CCCCNC(=O)OCC#CI [IPBC, 3-Iodo-2-propynyl-butylcarbamate]
MIC, single biocide [1]: 1400.0 ppm
MIC, single biocide [2]: 21.6 ppm
MIC, single biocide [3]: 6.6 ppm
